In US12122833B2, “Combination therapies of HDAC inhibitors and PD-1 inhibitors” (HUYABIO International, LLC, priority 2016, dated 2024):

Test system: MC38 murine colon carcinoma cells
Test: Example 1: tumor growth delay, MC38 murine colon carcinoma in C57BL/6 mice
Format: in vivo, mouse
Details: for Median TTE: endpoint 1000 mm^3 or Day 47, n=10; for % TGD: vs vehicle
Method: In the present example, HBI-8000 was tested as monotherapy and in combination with anti-PD-1 at 5 mg/kg. The experiment included a vehicle-treated group, and a PD-1 inhibitor antibody monotherapy group, which served as the control groups for analysis of efficacy. Tumors were measured twice per week until the study was ended on Day 47. Each animal was euthanized when its tumor attained the endpoint tumor volume of 1000 mm^3 or on the final day of the study, whichever came first, and the time to endpoint (TTE) for each mouse was calculated. Treatment response was determined from an analysis of percent tumor growth delay (% TGD), defined as the percent increase in the median time to endpoint (TTE) for treated versus control mice; and by log rank significance of differences in survival among groups and regression responses.
Mice: Female C57BL/6 mice (Charles River Laboratories) were eight weeks old, with a body weight (BW) range of 15.4 to 22.0 grams on Day 1 of the study. The animals were fed ad libitum water (reverse osmosis, 1 ppm Cl), and NIH 31 Modified and Irradiated Lab Diet® consisting of 18.0% crude protein, 5.0% crude fat, and 5.0% crude fiber. The mice were housed on irradiated Enrich-o'Cobs™ Laboratory Animal Bedding in static microisolators on a 12-hour light cycle at 20-22° C. (68-72° F.) and 40-60% humidity.
Tumor Cells: MC38 murine colon carcinoma cells were maintained in Dulbecco's Modified Eagle Medium (DMEM) supplemented with 10% fetal bovine serum and 2 mM glutamine, 100 units/mL penicillin G sodium, […] streptomycin sulfate, and 25 μg/mL gentamicin. Cell cultures were maintained in tissue culture flasks in a humidified incubator at 37° C., in an atmosphere of 5% CO2 and 95% air.
Tumor Implantation: Cells were harvested during exponential growth, and resuspended in cold DMEM. Each mouse was inoculated subcutaneously in the right flank with 1×10^6 cells (0.1 mL of cell suspension). Tumors were calipered in two dimensions to monitor growth as their mean volume approached the desired 100-150 mm^3 range. Tumor burden was calculated using the formula:
[formula] where w=width and l=length, in mm, of the tumor. Tumor weight may be estimated with the assumption that 1 mg is equivalent to 1 mm^3 of tumor volume. Fourteen days after tumor implantation, which was designated as Day 1 of the study, animals with individual tumor volumes from 75 to 221 mm^3 were sorted into eleven groups (n=10/group) with group mean tumor volume of 130-133 mm^3. […]
Tumor Growth Delay: Tumors were measured using calipers twice per week, and each animal was euthanized when its tumor reached a volume of 1000 mm^3 or at the end of the study (D47), whichever came first. […] The time to endpoint (TTE) for analysis was calculated for each mouse by the following equation: […]

[1] = HBI-8000 20 mg/kg p.o. qd×21, alone or plus anti-PD-1 5 mg/kg i.p. biwk×3
[2] = HBI-8000 50 mg/kg p.o. qd×21, alone or plus anti-PD-1 5 mg/kg i.p. biwk×3

Nc1cc(F)ccc1NC(=O)c1ccc(CNC(=O)/C=C/c2cccnc2)cc1 [HBI-8000, N-(2-amino-4-fluorophenyl)-4-[[[(2E)-1-oxo-3-(3-pyridinyl)-2-propen-1-yl]amino]methyl]benz amide]
Median TTE [1]: 18.9 days
% TGD [1]: −8%
Median TTE [2]: 22.8 days
% TGD [2]: 11%
